US7759345B2, “Antitumoral derivatives of ET-743” (priority 2001, dated 2010)

Experiments:
P-388 = assay: Inhibition of cell growth by counting cells, P-388; assay type: cell-based, mouse; details: Mus musculus, P388, 72 h; three days of incubation; read-out: IC50 (molar) P-388
Description: (§1) 1°.—Inhibition of Cell Growth by Counting Cells.
(§2) This form of the assay employs 24 well multidishes of 16 mm diameter (Bergeron, 1984; Schroeder, 1981). The tumor cell lines employed are: P-388 (ATCC CCL 46), suspension culture of a lymphoid neoplasm from a DBA/2 mouse; A-549 (ATCC CCL 185), monolayer culture of a human lung carcinoma; HT-29 (ATCC HTB-38), monolayer culture of a human colon carcinoma; MEL-28 (ATCC HTB-72), monolayer culture of a human melanoma and DU-145 (ATCC HTB-81), monolayer culture of a human prostate carcinoma.
(§3) Cells were maintained, in logarithmic phase of growth in Eagle's Minimum Essential Medium, with Earle's Balanced Salts, with non-essential amino acids, with 2.0 mM L-Glutamine, without sodium bicarbonate (EMEM/neaa), supplemented with 10% Fetal Calf Serum (FCS), 10^−2 M. sodium bicarbonate and 0.1 U/l penicillin G+0.1 g/l streptomycin sulfate. For the experiments, cells are harvested from subconfluent cultures using trypsin and resuspended in fresh medium before plating.
(§4) P-388 cells were seeded into 16 mm diameter wells at 1×10^4 cells per well in 1 ml aliquots of EMEM 5% FCS containing different concentrations of the sample to be tested. A separate set of cultures without drug was seeded as control of growth, to ensure that cells remained in exponential phase of growth. All determinations are carrying out in duplicate.
(§5) For quantifying the activity, after the incubation time, cells are trypsinized and counted in a Coulter Counter ZM. All counts (net cells per well), represent the average of duplicate wells. % G, percent of growth relative to cultures without drug. The results of these assays are used to generate dose-response curves from which more precise IC50 values are determined (sample concentration which produces 50% cell growth inhibition).
(§6) Obtained results may predict the usefulness of a certain drug as a potential cancer treatment. For this technique, compounds which show IC50 values smaller than 1 μg/ml are selected to continue with further studies. IC50's data allow to predict that not only could a drug be cystostatic, but also it could have a potential in terms of tumor reduction.

A-549 = assay: Inhibition of cell growth by counting cells, A-549; assay type: cell-based, human; details: Homo sapiens, A549, 72 h; three days of incubation; read-out: IC50 (molar) A-549
Description: as §1, §2, §3
as §4, with “A-549, HT-29, MEL-28 and DU-145” for “P-388”, “duplicate. After three days of incubation at 37° C., 5% CO2 in a 98% humid atmosphere cells were stained with 0.1% crystal violet. An approximately IC50 was determined by comparing the growth in wells with drug to the growth in wells control.” for “duplicate.”
as §5, §6

HT-29 = assay: Inhibition of cell growth by counting cells, HT-29; assay type: cell-based, human; details: Homo sapiens, HT-29, 72 h; three days of incubation; read-out: IC50 (molar) HT-29
Description: as §1, §2, §3
as §4, with “A-549, HT-29, MEL-28 and DU-145” for “P-388”, “duplicate. After three days of incubation at 37° C., 5% CO2 in a 98% humid atmosphere cells were stained with 0.1% crystal violet. An approximately IC50 was determined by comparing the growth in wells with drug to the growth in wells control.” for “duplicate.”
as §5, §6

MEL-28 = assay: Inhibition of cell growth by counting cells, MEL-28; assay type: cell-based, human; details: Homo sapiens, SK-MEL-28, 72 h; three days of incubation; read-out: IC50 (molar) MEL-28
Description: as §1, §2, §3
as §4, with “A-549, HT-29, MEL-28 and DU-145” for “P-388”, “duplicate. After three days of incubation at 37° C., 5% CO2 in a 98% humid atmosphere cells were stained with 0.1% crystal violet. An approximately IC50 was determined by comparing the growth in wells with drug to the growth in wells control.” for “duplicate.”
as §5, §6

Structure (SMILES)	IC50 (P-388) [nM]	IC50 (A-549) [nM]	IC50 (HT-29) [nM]	IC50 (MEL-28) [nM]
COc1cc2c(cc1OC(C)=O)CCN[C@]21CS[C@@H]2c3c(OC(C)=O)c(C)c4c(c3[C@H](COC1=O)N1C2[C@H]2c3c(cc(C)c(OC)c3O)C[C@@H]([C@@H]1C#N)N2C)OCO4 (some centres unmarked) [Compound 2]	0.148	0.148	0.148	0.148
COc1cc2c(cc1OC(C)=O)CCN[C@]21CS[C@@H]2c3c(OC(C)=O)c(C)c4c(c3[C@H](COC1=O)N1C2[C@H]2c3c(cc(C)c(OC)c3OC(C)=O)C[C@@H]([C@@H]1C#N)N2C)OCO4 (some centres unmarked) [Compound 6]	1.41	2.93	2.93	2.93
C=CCOC(=O)Oc1cc2c(cc1OC)[C@@]1(CS[C@@H]3c4c(OC(C)=O)c(C)c5c(c4[C@H](COC1=O)N1C3[C@H]3c4c(cc(C)c(OC)c4O)C[C@@H]([C@@H]1C#N)N3C)OCO5)NCC2 (some centres unmarked) [Compound 25]	0.141	0.141	0.141	0.141
C=CCOC(=O)Oc1cc2c(cc1OC)[C@@]1(CS[C@@H]3c4c(OC(C)=O)c(C)c5c(c4[C@H](COC1=O)N1C3[C@H]3c4c(cc(C)c(OC)c4OC(=O)OCC=C)C[C@@H]([C@@H]1C#N)N3C)OCO5)NCC2 (some centres unmarked) [Compound 26]	5.33	5.33	5.33	5.33
CCOc1cc2c(cc1OC)[C@@]1(CS[C@@H]3c4c(OC(C)=O)c(C)c5c(c4[C@H](COC1=O)N1C3[C@H]3c4c(cc(C)c(OC)c4O)C[C@@H]([C@@H]1C#N)N3C)OCO5)NCC2 (some centres unmarked) [Compound 37]	0.125	0.125	0.125	0.125
CCCOc1cc2c(cc1OC)[C@@]1(CS[C@@H]3c4c(OC(C)=O)c(C)c5c(c4[C@H](COC1=O)N1C3[C@H]3c4c(cc(C)c(OC)c4O)C[C@@H]([C@@H]1C#N)N3C)OCO5)NCC2 (some centres unmarked) [Compound 39]	0.616	0.616	0.616	0.616
COc1cc2c(cc1O)CCN[C@]21CS[C@@H]2c3c(OC(C)=O)c(C)c4c(c3[C@H](COC1=O)N1C2[C@H]2c3c(cc(C)c(OC)c3OC(C)=O)C[C@@H]([C@@H]1C#N)N2C)OCO4 (some centres unmarked) [Compound 51]	0.616	1.23	1.23	1.23
COc1cc2c(cc1O)CCN[C@]21CS[C@@H]2c3c(OCc4ccccc4)c(C)c4c(c3[C@H](COC1=O)N1C2[C@H]2c3c(cc(C)c(OC)c3O)C[C@@H]([C@@H]1O)N2C)OCO4 (some centres unmarked) [Compound 180]		0.618	0.618	
COc1cc2c(cc1O)CCN[C@]21CS[C@@H]2c3c(OCc4ccccc4)c(C)c4c(c3[C@H](COC1=O)N1C2[C@H]2c3c(cc(C)c(OC)c3OCc3ccccc3)C[C@@H]([C@@H]1O)N2C)OCO4 (some centres unmarked) [Compound 181]		11.1	11.1	
CCCCCCCC(=O)Oc1cc2c(cc1OC)[C@@]1(CS[C@@H]3c4c(OC(C)=O)c(C)c5c(c4[C@H](COC1=O)N1C3[C@@H]3N[C@@H](Cc4cc(C)c(OC)c(OC(=O)CCCCCCC)c43)[C@@H]1O)OCO5)NCC2 (some centres unmarked) [Compound 214]		5	5	
CCCCCCCCCCCCCCCC(=O)Oc1cc2c(cc1OC)[C@@]1(CS[C@@H]3c4c(OC(C)=O)c(C)c5c(c4[C@H](COC1=O)N1C3[C@@H]3N[C@@H](Cc4cc(C)c(OC)c(OC(=O)CCCCCCCCCCCCCCC)c43)[C@@H]1O)OCO5)NCC2 (some centres unmarked) [Compound 216]		81.6	81.6	
COc1cc2c(cc1O)CCN[C@]21CS[C@@H]2c3c(OC(C)=O)c(C)c4c(c3[C@H](COC1=O)N1C2[C@H]2c3c(cc(C)c(O)c3O)C[C@@H]([C@@H]1O)N2C)OCO4 (some centres unmarked) [Compound 221]		1.34	1.34	
